From patent publication US9012223B2, “Methods for enhancing genome stability and telomere elongation in embryonic stem cells” (The United States of America, as represented by the …, priority 2009, dated 2015)

Experiments:
[1] = tested on: Zscan4; experiment: Time-course of Emerald GFP+ (Zscan4+) cells by flow cytometry after retinoid treatment; format: cell-based, mouse; conditions: for day of peak of fraction of Zscan4+ cells / fraction of Zscan4+ cells / secondary increase of Zscan4+ cells: atRA, 9-cis RA, 13-cis RA 50 nM; for day of peak of fraction of Zscan4+ cells / secondary increase of Zscan4+ cells: vitamin A 5 μM; for fraction of Zscan4+ cells: vitamin A 5 μM final concentration, up to 7 days; for secondary increase of Zscan4+ cells: within 7 days of treatment
Text: FIG. 9 is a line graph showing the percentage of Emerald cells following treatment of MC1-ZE7 cells in the presence or absence of leukemia inhibitory factor (LIF) and in the presence or absence of retinoic acid (RA). Cells were passaged to gelatin-coated plates in the presence of LIF (LIF+) and absence of atRA (atRA−). The next day (Day 0), the culture medium of each well was changed to four different conditions: LIF+ atRA−, LIF+ atRA+, LIF− atRA−, and LIF− atRA+. The cells were maintained in the same culture medium for 8 days with the medium changes every day, but without passaging. Cells were harvested every day and the number of Emerald GFP^+ cells was measured by flow cytometry.
(§1) FIG. 10A is a line graph showing the effect of different retinoids (atRA, 9-cis RA, 13-cis RA or vitamin A) on the percentage of Zscan4^+ cells in culture. Shown is the percentage of Emerald^+ MC1-ZE-7 cells up to seven days following exposure to the retinoid. FIG. 10B is a line graph showing the effect of the different reintoids on ES cell proliferation.
A 20 mM stock solution of all-trans retinoic acid (atRA) in ethanol was used at a final concentration of 1 μM, 2 μM, or 50 nM. 9-cis RA and 13-cis RA were used at a final concentration of […] final. Vitamin A (retinol) was used at a final concentration of 5 μM.
Zscan4 Expression is Induced Transiently by all-Trans Retinoic Acid (atRA) Mouse ES cells (referred to as pZscan4-Emerald7 (MC1-ZE7) cells) in which a plasmid carrying a green fluorescent protein (Emerald: Em) regulated under the promoter of Zscan4c is integrated in the genome were used in these studies. […] Cells were first passaged to gelatin-coated plates in the presence of leukemia inhibitory factor (LIF+) and absence of atRA (atRA−). The next day (Day 0), the culture medium of each well was changed to four different conditions: LIF+ atRA−, LIF+ atRA+, LIF− atRA−, and LIF− atRA+. The final concentration of atRA was […]. The cells were maintained in the same culture medium for 8 days with medium changes every day, but without passaging. Cells were harvested every day and the number of Emerald GFP^+ cells was measured by flow cytometry (Guava).
(§2) Although atRA is most commonly used for mammalian cell culture systems, there are other retinoids that sometimes have similar activities on the cells. To test other retinoids for Zscan4-inducibility, similar time-course kinetic assays were carried out using atRA (50 nM final concentration), 9-cis RA (50 nM final concentration), 13-cis RA (50 nM final concentration), or vitamin A (5 μM final concentration). […] Zscan4^+ cells may have growth advantages over Zscan4^− cells in the presence of vitamin A and 13-cis RA.

[2] = tested on: MC1-ZE7 cells; experiment: Effect of retinoids on ES cell proliferation; format: cell-based, mouse; conditions: atRA, 9-cis RA, 13-cis RA 50 nM, vitamin A 5 μM; up to 7 days
Text: as §1, §2

[3] = tested on: Zscan4; conditions: MC1-ZE7 cells, LIF+; H2O2 100 μM, 300 μM or 1000 μM; two days
Protocol: MC1-ZE7 cells were cultured in standard ES cell medium (LIF+). […] The cells were cultured for two days and the fraction of Emerald^+ (i.e., Zscan4^+ cells) was measured by flow cytometry.
MC1-ZE7 cells were cultured in standard ES cell medium (LIF+). […] The cells were cultured for two days and the percentage of Em^+ (i.e., Zscan4^+ cells) was determined by the Guava flow cytometry (Guava).

[4] = tested on: ES cells; experiment: Survival of ES cells after treatment with DNA-damaging agent (live cell count); format: cell-based, mouse; conditions: then 3 more days
Protocol: FIGS. 12A and 12B are graphs showing survival of control ES cells (A) and tet-Zscan4 ES cells (B) after treatment with mitomycin C (MMC). Control ES cells contained a control plasmid (tet-Empty). Cells were cultured in standard ES medium (LIF+) and passaged into two groups: (1) in the absence of doxycycline (Dox) or (2) in the presence of Dox at a final concentration of 0.2 μg/ml. The Dox+ and Dox− media were changed every day. On the fourth day, the cells were cultured for 6 hours in the presence of MMC at a final concentration ranging from 0 to 600 ng/ml. MMC was removed from the culture by changing the media and cells were then incubated for 3 more days in the Dox+ medium, with the medium changed every day. Cells were harvested and the number of live cells was counted.
Control cells (carrying the tet-Empty plasmid) and Zscan4-expressing cells (carrying the tet-Zscan4 plasmid) were used in this study. The cells were cultured in standard ES medium (LIF+). Cells were passaged into two groups: (1) in the absence of doxycycline (Dox−), or (2) in the presence of doxycycline (Dox+) at a final concentration of 0.2 μg/ml. The Dox+ and Dox− media were changed every day. On the fourth day, the cells were cultured for 6 hours in the presence of MMC at a final concentration ranging from 0 to 600 ng/ml. […] Cells were harvested and the number of live cells was counted.

[5] = MC1-ZE7 cells, atRA 2 M (so in the source), LIF+ and LIF-

In the case of CC1=C(/C=C/C(C)=C\C=C\C(C)=C\C(=O)O)C(C)(C)CCC1 [9-cis RA, 9-cis retinoic acid], the “day of peak of fraction of Zscan4+ cells” value ([1]; MC1-ZE7 cells) is reported as 2 days, the “fraction of Zscan4+ cells” value ([1]; MC1-ZE7 cells) is reported as “transiently increased” and the “secondary increase of Zscan4+ cells” value [1] is reported as “not”. For the same compound, the “effect on cell proliferation” value [2] was “nearly complete suppression of cell proliferation”.

For CC1=C(/C=C/C(C)=C/C=C/C(C)=C\C(=O)O)C(C)(C)CCC1 [13-cis RA, 13-cis-retinoic acid], the “day of peak of fraction of Zscan4+ cells” value ([1]; MC1-ZE7 cells) was 2 days, the “fraction of Zscan4+ cells” value ([1]; MC1-ZE7 cells) was “transiently increased” and the “secondary increase of Zscan4+ cells” value [1] was “observed”. The “effect on cell proliferation” value [2] was “moderate suppression of cell proliferation”.

OO [H2O2, Hydrogen peroxide] was tested, and the “number (percentage) of Zscan4+ (Em+) cells” value [3] was “increases the number of Zscan4^+ cells”.

CO[C@@]12[C@H](COC(N)=O)C3=C(C(=O)C(C)=C(N)C3=O)N1C[C@@H]1N[C@@H]12 [MMC, mitomycin C] was tested, and the “survival of Zscan4-expressing (tet-Zscan4) ES cells against the DNA-damaging agent, Dox- versus Dox+” value ([4]; Zscan4 induced by Dox removal, agent for 6 hours) was “increased survival” and the cell survival rate ([4]; control (tet-Empty) ES cells, MMC 0 to 600 ng/ml for 6 hours) was “the higher the dose of MMC, the lower the cell survival rate”.

For CC1=C(/C=C/C(C)=C/C=C/C(C)=C/C(=O)O)C(C)(C)CCC1 [atRA, all-trans retinoic acid], the “decline of Zscan4+ cell induction to basal level” value [1, 5] was “declined to the basal level by the fourth day”, the “time of peak of Em+ (Zscan4+) cell fraction” value [1, 5] was “peaked on the second day” and the “fraction of Em+ cells (i.e., Zscan4+ cells) in the culture” value ([1]; MC1-ZE7 cells, atRA 2 M (so in the source), LIF+ and LIF- conditions, 8 days, daily harvest) was “dramatically induced”. The “day of peak of fraction of Zscan4+ cells” value ([1]; MC1-ZE7 cells) was 2 days, the “fraction of Zscan4+ cells” value ([1]; MC1-ZE7 cells) was “transiently increased” and the “secondary increase of Zscan4+ cells” value [1] was “not”. For the same compound, the “effect on cell proliferation” value [2] was “nearly complete suppression of cell proliferation”.

With CC1=C(/C=C/C(C)=C/C=C/C(C)=C/CO)C(C)(C)CCC1 [vitamin A, retinol] the “day of peak of fraction of Zscan4+ cells” value ([1]; MC1-ZE7 cells) was 2 days, the “fraction of Zscan4+ cells” value ([1]; MC1-ZE7 cells) was “transiently increased” and the “secondary increase of Zscan4+ cells” value [1] was “observed”. For the same compound, the “effect on cell proliferation” value [2] was “did not affect cell proliferation”.
